Measured values published in patent publication US20230049350A1, “COMPOUNDS FOR TREATING BRAIN CANCER” (Purdue Pharmaceutical Products L.P., priority 2014, published 2023).
“Also recorded” adds a separate entry of the source. Where two headings read alike, the source gives them in different places.

How the values were obtained:
U87 [1] = assay: Clonogenic survival with radiotherapy, U87; assay type: cell-based; conditions: 2.5 µM or 5 µM, 24 hr, plus radiotherapy, FIG. 10
Method: (§1) In a first experiment, U251, U87 and T98G cell lines were treated with radiotherapy alone or with radiotherapy and EDO-S101.
(§2) For clonogenic survival, exponentially growing cells (70% confluence) were cultured in regular media and treated with EDO-S101 at the appropriate concentrations, or vehicle (final DMSO concentration of 0.1%) for 24 hr. Tumour cell irradiation was done using a 6 MV linear accelerator Elekta Synergy using a clinically calibrated irradiation field of 30 × 30 cm. Two cm thick plates of perspex were positioned above and below the cell culture flasks completely filled with medium to compensate for the build-up effect. Non-irradiated controls were handled identically to the irradiated cells with the exception of the radiation exposure. […] Colonies containing more than 50 cells were counted. The plating efficiency (PE) was calculated as the number of colonies observed/the number of cell plated. The surviving fraction was calculated as the number of colonies formed in the treated dishes compared with the number formed in the control. The survival curves were analyzed using SPSS (Chicago, IL) statistical software by means of a fit of the data by a weighted, stratified, linear regression, according to the linear-quadratic formula: S(D)/S(O)=exp-(aD+bD2).

T98G = assay: Clonogenic survival with radiotherapy, T98G; assay type: cell-based; conditions: 2.5 µM or 5 µM, 24 hr, plus radiotherapy, FIG. 10
Method: as §1, §2

U251 = assay: Clonogenic survival with radiotherapy, U251; assay type: cell-based; conditions: 2.5 µM or 5 µM, 24 hr, plus radiotherapy, FIG. 10
Method: as §1, §2

U87 [2] = assay: s.c. xenograft model of GBM, U87, time to progression; assay type: in vivo, mice; conditions: for time to progression of the tumours: U87G xenograft
Method: Next, adopting the procedure of Example 3, s.c. xenograft models of GBMs in mice were prepared using the GBM cell lines U251 and U87.
The U251 mice prepared as above were subjected either subjected to radiotherapy (2 Gy for 5 consecutive days), treatment with EDO-S101 (60 mg/kg intravenously at days 1, 8 and 15 of the treatment cycle) or control only. Before any irradiation mice were anesthetized with a mixture of ketamine (25 mg/ml)/xylazine (5 mg/ml). Anesthetized tumor-bearing mice received a focal irradiation at the dose of 2 Gy for 5 consecutive days. Irradiation was delivered using an X-ray linear accelerator at a dose rate of 200 cGy/min at room temperature. All mice were shielded with a specially designed lead apparatus to allow irradiation to the right hind limb. Mice were kept under these conditions until all irradiation finished.
The same sequence of experiments was followed, but this time with the s.c. xenograft models of GBM in mice prepared using the GBM cell line U87. In a first experiment, the U87 mice prepared as above were subjected either subjected to radiotherapy (2 Gy for 5 consecutive days), treatment with EDO-S101 (60 mg/kg intravenously at days 1, 8 and 15 of the treatment cycle) or control only. A study was made of the progression of the GBM.

U251 tumours = assay: Mice with implanted U251 tumours, time to progression (Example 3); assay type: in vivo; conditions: 60 mg/kg iv days 1, 8 and 15, FIG. 8
Method: The above procedure was followed in similar manner using the cell lines U87G and U251G. Once again, EDO-S101 (60 mg/kg) was administered intravenously via the tail vein, but in these experiments it was administered at days 1, 8 and 15. In place of bendamustime, TMZ was administered as a comparison at 16 mg/kg for 5 consecutive days, po. The mice were sacrificed after 28 days.

U251MG = assay: GBM cell line viability IC50, U251; assay type: cell-based; conditions: Homo sapiens, U-251
Method: (§3) In vitro experiments were devised in which a series of GBM cell lines representative for MGMT negative and MGMT positive tumour cells were used.
(§4) Compounds: 1-100 µM EDO-S101, 1-50 µM temozolomide (TMZ), 1-50 µM temozolomide + 500 nM vorinostat, 1-40 µM bendamustine, 1-40 µM bendamustine and 500 nM vorinostat.
(§5) Twelve glioblastoma cell lines representing grade III and IV gliomas and with different expression of MGMT, drug and radiotherapy sensitivity and five patient derived glioblastoma stem, cells were used (see above). […] Spheres were counted 5 days after treatment under an inverted microscope at ×4 magnification. A sphere was counted if it had at least 15 cells.
(§6) Cells were seeded at a density of 2 × 10^4 cells/ml in 24 well plates. […] Cells trypsinized and resuspended in 1.0 ml of saline were counted using the NucleoCounterTM NC-100 (automated cell counter systems, Chemotec, Cydevang, DK) in order to evaluate cell viability. […] IC50 values were calculated by the GraFit method (Erithacus Software Limited, Staines, UK). Cell viability was measured with the 3-(4,5 dimethylthiazol-2-yl)-2,5-diphenyl tetrazolium bromide (MTT; Sigma-Aldrich) assay.
(§7) IC50 and IC20 values for all twelve cell lines against bendamustine and vorinostat were also determined as described above. […]

[3] = system: twelve tested GBM cell lines; assay: GBM cell line viability, panel of twelve tested cell lines; assay type: cell-based; conditions: in combination with 500 nM vorinostat
Method: as §3, §4, §5, §6, §7

[4] = drug in combination with radiotherapy 2 Gy x 5 days, EDO-S101 60 mg/kg iv days 1, 8, 15, temozolomide 16 mg/kg po x 5 days

Row | IC50 (U251MG; MGMT negative U251MG glioblastoma cell line, read-out: IC50) | Structure (SMILES) | % survival rate (surviving fraction) with radiotherapy versus radiotherapy alone (U87 [1]) | % survival rate (surviving fraction) with radiotherapy versus radiotherapy alone (T98G) | % survival rate (surviving fraction) with radiotherapy versus radiotherapy alone (U251) | time to progression of the tumours (U87 [2]; drug alone, 60 mg/kg iv days 1, 8, 15, control approximately 15 days) | time to progression of the tumours (U87 [2]; [4]) | time to progression versus radiotherapy, or versus radiotherapy and temozolomide (U87 [2]; U87 s.c. xenograft, drug alone, FIG. 13, FIG. 14) | time to progression versus EDO-S101 alone and versus radiotherapy and temozolomide (U87 [2]; U87 s.c. xenograft, drug plus radiotherapy, FIG. 14) | time to progression (TTP) versus control and TMZ (U251 tumours) | IC50 (U251MG) | sensitivity of all cell lines (FIG. 5) [3]
1 |  | Cn1c(CCCCCCC(=O)NO)nc2cc(N(CCCl)CCCl)ccc21 [EDO-S101] | considerably reduced | considerably reduced | considerably reduced | 40 days | over 50 days | considerably longer; also recorded: greater than that achieved with the combined radiotherapy and temozolomide treatment | significantly longer | significantly longer |  | 
2 |  | Cn1c(CCCC(=O)O)nc2cc(N(CCCl)CCCl)ccc21 [bendamustine] |  |  |  |  |  |  |  |  | 30 µM | highly sensitive except Mz54 and T98G
3 | 20 µM | Cn1nnc2c(C(N)=O)ncn2c1=O [temozolomide] |  |  |  |  | 35 days |  |  |  |  | 
